Reference: ChEMBL document CHEMBL3779788, “Facile synthesis of 1,3-thiazolidin-4-ones as antitubercular agents” (Bioorg Med Chem Lett, 2016)
Converted amounts (≈) assume the structure as drawn.

Legend:
[1] = Cytotoxicity against human HCT116 cells at 3 ug/mL by MTT assay; assay type: cell-based, HCT-116; settings: read-out: INH
[2] = Cytotoxicity against human MCF7 cells at 10 ug/mL by MTT assay; assay type: cell-based; settings: read-out: INH
[3] = test system: Mycobacterium bovis BCG str. ATCC 35743; assay: (§1) Antitubercular activity against dormant Mycobacterium bovis BCG ATCC 35743 by NR assay; assay type: functional
[4] = as §1; assay type: functional, Mycobacterium bovis BCG str. ATCC 35743
[5] = test system: Mycobacterium bovis BCG str. ATCC 35743; assay: Antitubercular activity against dormant Mycobacterium bovis BCG ATCC 35743 assessed as growth inhibition at 10 ug/mL by NR assay; assay type: functional
[6] = test system: Mycobacterium tuberculosis; assay: Antitubercular activity against dormant Mycobacterium tuberculosis H37Ra by XTT reduction menadione assay; assay type: functional, organism-based
[7] = Cytotoxicity against human HCT116 cells after 48 and 72 hrs by MTT assay; assay type: cell-based, HCT-116; settings: for GI50 at 72 h: HCT116 cells; for GI90: hct-116, 72 h
[8] = (§2) Cytotoxicity against human A549 cells after 48 and 72 hrs by MTT assay; assay type: cell-based; settings: A549 cells
[9] = test system: A549; assay: as §2; assay type: cell-based; settings: a549, 72 h
[10] = Cytotoxicity against human HCT116 cells at 30 ug/mL by MTT assay; assay type: cell-based, HCT-116; settings: read-out: INH
[11] = Cytotoxicity against human MCF7 cells at 3 ug/mL by MTT assay; assay type: cell-based; settings: read-out: INH
[12] = test system: Mycobacterium bovis BCG str. ATCC 35743; assay: Antitubercular activity against dormant Mycobacterium bovis BCG ATCC 35743 assessed as growth inhibition at 3 ug/mL by NR assay; assay type: functional
[13] = Cytotoxicity against human A549 cells at 30 ug/mL by MTT assay; assay type: cell-based; settings: read-out: INH
[14] = (§3) Cytotoxicity against human MCF7 cells after 48 and 72 hrs by MTT assay; assay type: cell-based; settings: MCF7 cells
[15] = test system: MCF7; assay: as §3; assay type: cell-based; settings: mcf7, 72 h
[16] = test system: Mycobacterium tuberculosis; assay: Antitubercular activity against dormant Mycobacterium tuberculosis H37Ra assessed as growth inhibition at 30 ug/mL by XTT reduction menadione assay; assay type: functional; settings: read-out: GI
[17] = test system: Pseudomonas; assay: Antibacterial activity against Pseudomonas after 18 hrs by broth dilution method; assay type: functional, organism-based
[18] = Cytotoxicity against human MCF7 cells at 30 ug/mL by MTT assay; assay type: cell-based; settings: read-out: INH
[19] = test system: Bacillus subtilis; assay: Antibacterial activity against Bacillus subtilis after 18 hrs by broth dilution method; assay type: functional, organism-based
[20] = Cytotoxicity against human HCT116 cells at 10 ug/mL by MTT assay; assay type: cell-based, HCT-116; settings: read-out: INH
[21] = test system: Mycobacterium bovis BCG str. ATCC 35743; assay: Antitubercular activity against dormant Mycobacterium bovis BCG ATCC 35743 assessed as growth inhibition at 30 ug/mL by NR assay; assay type: functional
[22] = test system: Mycobacterium tuberculosis; assay: Antitubercular activity against dormant Mycobacterium tuberculosis H37Ra assessed as growth inhibition at 10 ug/mL by XTT reduction menadione assay; assay type: functional; settings: read-out: GI
[23] = Cytotoxicity against human A549 cells at 3 ug/mL by MTT assay; assay type: cell-based; settings: read-out: INH
[24] = test system: Escherichia coli; assay: Antibacterial activity against Escherichia coli after 18 hrs by broth dilution method; assay type: functional, organism-based
[25] = Cytotoxicity against human A549 cells at 10 ug/mL by MTT assay; assay type: cell-based; settings: read-out: INH
[26] = test system: Mycobacterium tuberculosis; assay: Antitubercular activity against dormant Mycobacterium tuberculosis H37Ra assessed as growth inhibition at 3 ug/mL by XTT reduction menadione assay; assay type: functional; settings: read-out: GI
[27] = test system: Staphylococcus aureus; assay: Antibacterial activity against Staphylococcus aureus after 18 hrs by broth dilution method; assay type: functional, organism-based

`Cc1ccc(C2SCC(=O)N2c2ccc(F)cc2)cc1` (centres undefined) showed a cytotoxicity at 3 ug/mL [1] of 1.1%, a cytotoxicity at 10 ug/mL [2] of 37.7% and an IC90 [3] greater than 30 µg/mL. The IC50 [4] was greater than 30 µg/mL, the growth inhibition (GI) [5] was -4% and the IC50 [6] was 29.8 µg/mL (≈ 104 µM). It also gave an IC90 [6] greater than 30 µg/mL, a GI50 at 72 h [7] greater than 100 µg/mL and a GI90 [7] greater than 100 µg/mL. It also gave a GI50 at 72 h [8] greater than 100 µg/mL, a GI90 [9] greater than 100 µg/mL and a cytotoxicity at 30 ug/mL [10] of 29.6%. The cytotoxicity at 3 ug/mL [11] was 22.3%, the growth inhibition (GI) [12] was -3% and the cytotoxicity at 30 ug/mL [13] was -11.4%. It also gave a GI50 at 72 h [14] greater than 100 µg/mL, a GI90 [15] greater than 100 µg/mL and an inhibition of growth at 30 µg/mL [16] of 51.3%. The IC50 [17] was greater than 30 µg/mL, the MIC [17] was greater than 30 µg/mL and the cytotoxicity at 30 ug/mL [18] was 37.5%. The IC50 [19] was greater than 30 µg/mL, the MIC [19] was greater than 30 µg/mL and the cytotoxicity at 10 ug/mL [20] was 9.1%. The growth inhibition (GI) [21] was -3.9%, the inhibition of growth at 10 µg/mL [22] was -37% and the cytotoxicity at 3 ug/mL [23] was 0%. The IC50 [24] was greater than 30 µg/mL, the MIC [24] was greater than 30 µg/mL and the cytotoxicity at 10 ug/mL [25] was 0%. It also gave an inhibition of growth at 3 µg/mL [26] of 10.9%, an IC50 [27] greater than 30 µg/mL and an MIC [27] greater than 30 µg/mL.
With `COc1ccc(N2C(=O)CSC2c2ccccc2)cc1` (centres undefined) the cytotoxicity at 3 ug/mL [1] was -6.1%, the cytotoxicity at 10 ug/mL [2] was 8.9% and the IC90 [3] was greater than 30 µg/mL. For the same compound, the IC50 [4] was greater than 30 µg/mL, the growth inhibition (GI) [5] was 30.2% and the IC50 [6] was 2.2 µg/mL (≈ 7.71 µM). For the same compound, the IC90 [6] was 24 µg/mL (≈ 84.1 µM), the GI50 at 72 h [7] was greater than 100 µg/mL and the GI90 [7] was greater than 100 µg/mL. For the same compound, the GI50 at 72 h [8] was greater than 100 µg/mL, the GI90 [9] was greater than 100 µg/mL and the cytotoxicity at 30 ug/mL [10] was 10.2%. For the same compound, the cytotoxicity at 3 ug/mL [11] was -10%, the growth inhibition (GI) [12] was -0.1% and the cytotoxicity at 30 ug/mL [13] was 4.4%. The GI50 at 72 h [14] was greater than 100 µg/mL, the GI90 [15] was greater than 100 µg/mL and the inhibition of growth at 30 µg/mL [16] was 91.4%. For the same compound, the IC50 [17] was greater than 30 µg/mL, the MIC [17] was greater than 30 µg/mL and the cytotoxicity at 30 ug/mL [18] was 15.4%. The IC50 [19] was greater than 30 µg/mL, the MIC [19] was greater than 30 µg/mL and the cytotoxicity at 10 ug/mL [20] was 7.2%. For the same compound, the growth inhibition (GI) [21] was 71.9%, the inhibition of growth at 10 µg/mL [22] was 86% and the cytotoxicity at 3 ug/mL [23] was -0.1%. It also gave an IC50 [24] greater than 30 µg/mL, an MIC [24] greater than 30 µg/mL and a cytotoxicity at 10 ug/mL [25] of 0%. For the same compound, the inhibition of growth at 3 µg/mL [26] was 65.4%, the IC50 [27] was greater than 30 µg/mL and the MIC [27] was greater than 30 µg/mL.
`O=C1CSC(c2ccccc2)N1c1ccc(Cl)cc1` (centres undefined) showed a cytotoxicity at 3 ug/mL [1] of 19%, a cytotoxicity at 10 ug/mL [2] of 19.5% and an IC90 [3] greater than 30 µg/mL. It also gave an IC50 [4] greater than 30 µg/mL, a growth inhibition (GI) [5] of -11.3% and an IC50 [6] of 17.3 µg/mL (≈ 59.7 µM). For the same compound, the IC90 [6] was 28.7 µg/mL (≈ 99 µM), the GI50 at 72 h [7] was greater than 100 µg/mL and the GI90 [7] was greater than 100 µg/mL. For the same compound, the GI50 at 72 h [8] was greater than 100 µg/mL, the GI90 [9] was greater than 100 µg/mL and the cytotoxicity at 30 ug/mL [10] was 32.8%. It also gave a cytotoxicity at 3 ug/mL [11] of 11.2%, a growth inhibition (GI) [12] of 1.3% and a cytotoxicity at 30 ug/mL [13] of 13.4%. It also gave a GI50 at 72 h [14] greater than 100 µg/mL, a GI90 [15] greater than 100 µg/mL and an inhibition of growth at 30 µg/mL [16] of 94.3%. For the same compound, the IC50 [17] was greater than 30 µg/mL, the MIC [17] was greater than 30 µg/mL and the cytotoxicity at 30 ug/mL [18] was 38%. For the same compound, the IC50 [19] was greater than 30 µg/mL, the MIC [19] was greater than 30 µg/mL and the cytotoxicity at 10 ug/mL [20] was 30%. For the same compound, the growth inhibition (GI) [21] was 11.6%, the inhibition of growth at 10 µg/mL [22] was 24.2% and the cytotoxicity at 3 ug/mL [23] was -12.3%. For the same compound, the IC50 [24] was greater than 30 µg/mL, the MIC [24] was greater than 30 µg/mL and the cytotoxicity at 10 ug/mL [25] was 0%. For the same compound, the inhibition of growth at 3 µg/mL [26] was -17%, the IC50 [27] was greater than 30 µg/mL and the MIC [27] was greater than 30 µg/mL.
